Laboratory results taken from patent US11477982B2, “2-amino-5-oxyalkyl-pyrimidine derivatives and their use for controlling undesired plant growth” (Bayer CropScience Aktiengesellschaft, priority 2017, dated 2022).

Tests used:
Type in all cases: in vivo
[1] = system: MATIN: Matricaria inodora; assay: Pre-emergence herbicidal effect; conditions: for Herbicidal action against MATIN: pre-emergence, dosage 320 g/ha; for Herbicidal efficacy against MATIN: Table 4b, pre-emergence as titled, dosage 80 g of a.i./ha
From the text: (§1) 1. Pre-Emergence Herbicidal Effect and Crop Plant Compatibility
(§2) Seeds of monocotyledonous and dicotyledonous weed plants and crop plants are placed in plastic or wood fiber pots and covered with soil. The compounds of the invention, formulated in the form of wettable powders (WP) or as emulsion concentrates (EC), are then applied onto the surface of the covering soil as aqueous suspension or emulsion with addition of 0.5% additive at a water application rate of 600 l/ha (converted).
(§3) After the treatment, the pots are placed in a greenhouse and kept under good growth conditions for the trial plants. After about 3 weeks, the effect of the preparations is scored visually in comparison with untreated controls as percentages. For example, 100% activity=the plants have died, 0% activity=like control plants.

[2] = system: POLCO: Polygonum convolvulus; assay: Pre-emergence herbicidal effect; conditions: for Herbicidal efficacy against POLCO: Table 4a, dosage 20 g of a.i./ha
From the text: as §1, §2, §3

STEME: Stellaria media [3] = assay: Pre-emergence herbicidal effect; conditions: for Herbicidal action against STEME: pre-emergence, dosage 320 g/ha; for Herbicidal efficacy against STEME: Table 4b, pre-emergence as titled, dosage 80 g of a.i./ha
From the text: as §1, §2, §3

[4] = system: AMARE: Amaranthus retroflexus; assay: Pre-emergence herbicidal effect; conditions: for Herbicidal action against AMARE: pre-emergence; for Herbicidal efficacy against AMARE: Table 4b, pre-emergence as titled, dosage 80 g of a.i./ha
From the text: as §1, §2, §3

[5] = system: ABUTH: Abutilon theophrasti; assay: Pre-emergence herbicidal effect; conditions: for Herbicidal efficacy against ABUTH: Table 4a, dosage 20 g of a.i./ha
From the text: as §1, §2, §3

[6] = system: ECHCG: Echinochloa crus-galli; assay: Pre-emergence herbicidal effect
From the text: as §1, §2, §3

LOLRI: Lolium rigidum = assay: Pre-emergence herbicidal effect; conditions: for Herbicidal efficacy against LOLRI: Table 4a, dosage 20 g of a.i./ha
From the text: as §1, §2, §3

HORMU: Hordeum murinum = assay: Pre-emergence herbicidal effect; conditions: for Herbicidal action against HORMU: pre-emergence; for Herbicidal efficacy against HORMU: Table 4b, pre-emergence as titled, dosage 80 g of a.i./ha
From the text: as §1, §2, §3

VIOTR: Viola tricolor = assay: Pre-emergence herbicidal effect; conditions: dosage 320 g/ha
From the text: as §1, §2, §3

[7] = system: ALOMY: Alopecurus myosuroides; assay: Pre-emergence herbicidal effect
From the text: as §1, §2, §3

SETVI: Setaria viridis = assay: Pre-emergence herbicidal effect
From the text: as §1, §2, §3

PHBPU: Ipomoea purpurea = assay: Pre-emergence herbicidal effect; conditions: for Herbicidal efficacy against PHBPU: Table 4a, dosage 20 g of a.i./ha
From the text: as §1, §2, §3

AVEFA: Avena fatua = assay: Pre-emergence herbicidal effect
From the text: as §1, §2, §3

VERPE: Veronica persica = assay: Pre-emergence herbicidal effect; conditions: dosage 320 g/ha
From the text: as §1, §2, §3

STEME: Stellaria media [8] = assay: Post-emergence herbicidal effect
Procedure: (§4) 2. Post-Emergence Herbicidal Effect and Crop Plant Compatibility
(§5) Seeds of monocotyledonous and dicotyledonous weeds and crop plants are placed in sandy loam in plastic or wood-fiber pots, covered with soil and cultivated in a greenhouse under controlled growth conditions, 2 to 3 weeks after sowing, the test plants are treated at the one-leaf stage. The compounds of the invention, formulated in the form of wettable powders (WP) or as emulsion concentrates (EC), are then sprayed onto the green parts of the plants as aqueous suspension or emulsion with addition of 0.5% additive at a water application rate of 600 l/ha (converted). After the test plants had been kept in the greenhouse under optimum growth conditions for about 3 weeks, the activity of the preparations is rated visually in comparison to untreated controls. For example, 100% activity=the plants have died, 0% activity=like control plants.

[9] = system: AMARE: Amaranthus retroflexus; assay: Post-emergence herbicidal effect; conditions: dosage 320 g/ha
Procedure: as §4, §5

[10] = system: ABUTH: Abutilon theophrasti; assay: Post-emergence herbicidal effect; conditions: dosage 320 g/ha
Procedure: as §4, §5

[11] = system: ECHCG: Echinochloa crus-galli; assay: Post-emergence herbicidal effect; conditions: dosage 320 g/ha
Procedure: as §4, §5

[12] = Table 4a, pre-emergence, dosage 20 g of a.i./ha
[13] = Table 4b, pre-emergence as titled, dosage 80 g of a.i./ha

| Structure (SMILES) | Herbicidal action against MATIN [1] | Herbicidal action against POLCO ([2]; dosage 320 g/ha) | Herbicidal action against STEME (STEME: Stellaria media [3]) | Herbicidal action against AMARE ([4]; dosage 320 g/ha) | Herbicidal action against ABUTH ([5]; dosage 320 g/ha) | Herbicidal action against ECHCG ([6]; pre-emergence, dosage 320 g/ha) | Herbicidal action against LOLRI (LOLRI: Lolium rigidum; dosage 320 g/ha) | Herbicidal action against HORMU (HORMU: Hordeum murinum; dosage 320 g/ha) | Herbicidal action against VIOTR (VIOTR: Viola tricolor) | Herbicidal action against ALOMY ([7]; pre-emergence, dosage 320 g/ha) | Herbicidal action against SETVI (SETVI: Setaria viridis; pre-emergence, dosage 320 g/ha) | Herbicidal action against PHBPU (PHBPU: Ipomoea purpurea; dosage 320 g/ha) | Herbicidal action against AVEFA (AVEFA: Avena fatua; dosage 320 g/ha) | Herbicidal action against VERPE (VERPE: Veronica persica) | Herbicidal action against STEME (STEME: Stellaria media [8]; dosage 320 g/ha) | Herbicidal action against AMARE [9] | Herbicidal action against ABUTH [10] | Herbicidal action against ECHCG [11] | also measured |
| --- | --- | --- | --- | --- | --- | --- | --- | --- | --- | --- | --- | --- | --- | --- | --- | --- | --- | --- | --- |
| Cc1nc(NC2c3ccccc3CC2C)ncc1C(C)(C)O (mixture of isomers) [Example 1.51] | 100% | 100% | 100% | 100% | 100% | 100% | 100% | 90% | 100% | 100% | 100% | 100% | 80% | 100% |  |  |  |  |  |
| Cc1ccc2c(c1)[C@H](Nc1ncc([C@H](C)O)c(N)n1)[C@@H](C)C2 (racemic) [drawing 5, reference compound] |  |  |  |  |  |  |  |  |  |  |  |  | 60% |  |  |  |  |  | Herbicidal action against AVEFA (AVEFA: Avena fatua; dosage 80 g/ha): 20% |
| Cc1ccc2c(c1)[C@H](Nc1ncc([C@H](C)O)c(N)n1)[C@@H](C)C2 (racemic) [drawing 8, reference compound] |  |  |  |  |  |  |  | 20% |  |  |  | 20% |  |  |  |  |  |  |  |
| Cc1ccc2c(c1)[C@H](Nc1ncc([C@H](C)O)c(N)n1)[C@@H](C)C2 (racemic) [drawing 15, reference compound] |  |  |  |  |  |  |  |  |  |  |  |  |  |  |  |  |  |  | Herbicidal action against STEME (STEME: Stellaria media [8]; dosage 80 g/ha): 70% |
| Cc1ccc2c(c1)[C@H](Nc1ncc(C(C)O)c(C)n1)CC2 (stereo partly drawn) [Example 1.13] | 100% | 100% | 100% | 100% | 100% | 100% | 100% | 100% | 100% | 100% | 100% | 100% | 100% | 100% | 90% | 90% | 80% | 100% |  |
| Cc1ccc2c(c1)[C@H](Nc1ncc(C(C)(C)O)c(C(F)F)n1)[C@@H](C)C2 [Example 1.17] | 100% | 100% | 100% | 100% | 100% | 100% | 100% | 100% | 100% | 100% | 100% | 80% | 100% | 100% | 100% | 80% | 90% | 80% |  |
| Cc1ccc2c(c1)[C@H](Nc1ncc(C(C)(O)C3CC3)cn1)[C@@H](C)C2 (stereo partly drawn) [Example 1.20] | 100% | 100% | 100% | 100% | 100% | 100% | 100% | 100% | 100% | 100% | 100% | 100% | 100% | 100% | 100% | 90% | 90% | 100% |  |
| Cc1ccc2c(c1)[C@H](Nc1ncc(C(C)(C)O)c(C(C)F)n1)[C@@H](C)C2 (stereo partly drawn) [Example 1.23] | 100% | 100% | 100% | 100% | 100% | 100% | 100% | 80% | 100% | 100% | 100% | 100% | 100% | 100% |  |  |  |  |  |
| Cc1ccc2c(c1)[C@H](Nc1ncc(C(C)O)c(C)n1)CCO2 (stereo partly drawn) [Example 1.49] | 100% | 100% |  | 100% |  |  |  |  | 100% |  |  |  |  | 100% | 90% | 90% | 80% | 80% |  |
| Cc1ccc2c(c1)[C@H](Nc1ncc(C(C)(C)O)c(C)n1)CCO2 [Example 1.53] | 100% | 100% | 100% | 100% | 100% | 100% | 90% | 100% | 100% | 100% | 100% | 100% | 100% | 100% | 90% | 90% | 90% | 100% |  |
| Cc1ccc2c(c1)[C@H](Nc1ncc(C(C)(C)O)c(N)n1)[C@@H](C)C2 [drawing 4, reference compound] |  |  |  |  | 60% |  |  |  |  | 60% |  |  | 10 10% |  |  |  |  |  | Herbicidal action against ABUTH ([5]; dosage 80 g/ha): 20%; Herbicidal action against ECHCG ([6]; pre-emergence, dosage 80 g/ha): 30%; Herbicidal action against LOLRI (LOLRI: Lolium rigidum; dosage 80 g/ha): 40%; Herbicidal action against ALOMY ([7]; pre-emergence, dosage 80 g/ha): 30%; Herbicidal action against SETVI (SETVI: Setaria viridis; pre-emergence, dosage 80 g/ha): 30%; Herbicidal action against AVEFA (AVEFA: Avena fatua; dosage 80 g/ha): 10 10% |
| Cc1ccc2c(c1)[C@H](Nc1ncc(C(C)(C)O)c(N)n1)[C@@H](C)C2 [drawing 6, reference compound] |  |  |  |  |  |  |  |  |  |  |  | 0% |  |  |  |  |  |  | Herbicidal action against POLCO ([2]; dosage 80 g/ha): 0%; Herbicidal action against AMARE ([4]; dosage 80 g/ha): 40%; Herbicidal action against HORMU (HORMU: Hordeum murinum; dosage 80 g/ha): 20%; Herbicidal action against PHBPU (PHBPU: Ipomoea purpurea; dosage 80 g/ha): 0% |
| Cc1cc2c(s1)CCCC2Nc1ncc(C(C)(C)O)c(C)n1 (stereo not drawn) [drawing 16, reference compound] |  |  |  |  |  |  |  |  |  |  |  |  |  |  |  |  |  |  | Herbicidal efficacy against POLCO [2]: 20; Herbicidal efficacy against ABUTH [5]: 80; Herbicidal efficacy against ECHCG [6, 12]: 30; Herbicidal efficacy against LOLRI (LOLRI: Lolium rigidum): 0; Herbicidal efficacy against ALOMY [7, 12]: 30; Herbicidal efficacy against SETVI (SETVI: Setaria viridis; [12]): 80; Herbicidal efficacy against PHBPU (PHBPU: Ipomoea purpurea): 0 |
| Cc1cc2c(s1)CCCC2Nc1ncc(C(C)O)c(C)n1 (stereo not drawn) [drawing 17, reference compound] |  |  |  |  |  |  |  |  |  |  |  |  |  |  |  |  |  |  | Herbicidal efficacy against POLCO [2]: 20; Herbicidal efficacy against ABUTH [5]: 0; Herbicidal efficacy against ECHCG [6, 12]: 0; Herbicidal efficacy against LOLRI (LOLRI: Lolium rigidum): 0; Herbicidal efficacy against ALOMY [7, 12]: 0; Herbicidal efficacy against SETVI (SETVI: Setaria viridis; [12]): 20; Herbicidal efficacy against PHBPU (PHBPU: Ipomoea purpurea): 0 |
| Cc1cc2c(s1)CCCC2Nc1ncc(C(C)(C)O)c(C)n1 (stereo not drawn) [drawing 18, reference compound] |  |  |  |  |  |  |  |  |  |  |  |  |  |  |  |  |  |  | Herbicidal efficacy against MATIN [1]: 20; Herbicidal efficacy against STEME (STEME: Stellaria media [3]): 30; Herbicidal efficacy against AMARE [4]: 20; Herbicidal efficacy against ECHCG [6, 13]: 30; Herbicidal efficacy against HORMU (HORMU: Hordeum murinum): 10; Herbicidal efficacy against ALOMY [7, 13]: 20; Herbicidal efficacy against SETVI (SETVI: Setaria viridis; [13]): 20 |
| Cc1cc2c(s1)CCCC2Nc1ncc(C(C)O)c(C)n1 (stereo not drawn) [drawing 19, reference compound] |  |  |  |  |  |  |  |  |  |  |  |  |  |  |  |  |  |  | Herbicidal efficacy against MATIN [1]: 20; Herbicidal efficacy against STEME (STEME: Stellaria media [3]): 20; Herbicidal efficacy against AMARE [4]: 30; Herbicidal efficacy against ECHCG [6, 13]: 40; Herbicidal efficacy against HORMU (HORMU: Hordeum murinum): 0; Herbicidal efficacy against ALOMY [7, 13]: 10; Herbicidal efficacy against SETVI (SETVI: Setaria viridis; [13]): 20 |
